The record followed here is US8344009B2, “Substituted phenoxy thiazolidinediones as estrogen related receptor-á modulators” (priority 2007, dated 2013).

Structures are written as SMILES.

The first experiment addresses T1, ERR1 (also known as ERR-α or ERR-1) (Homo sapiens, UniProt P11474).
T1 sequence (P11474 193-421 limits assumed): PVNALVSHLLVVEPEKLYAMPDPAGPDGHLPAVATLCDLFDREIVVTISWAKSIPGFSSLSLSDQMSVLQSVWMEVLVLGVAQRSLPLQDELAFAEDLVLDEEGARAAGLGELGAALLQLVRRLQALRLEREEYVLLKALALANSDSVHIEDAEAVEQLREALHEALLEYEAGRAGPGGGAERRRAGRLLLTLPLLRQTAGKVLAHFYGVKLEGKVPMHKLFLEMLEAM
Kind of experiment: TR-FRET assay (disruption of co-activator peptide binding to ERR1 LBD). The format is biochemical.
Conditions: not given
The procedure: Time-Resolved Fluorescence Resonance Energy Transfer (TR-FRET) experiments were performed to examine the functional response of ERR1 (also known as ERR-α or ERR-1) ligands. The TR-FRET assay described herein relied on the conformation of ERR1 for binding to a co-activator peptide: when a test compound binds to ERR1 and alters its conformation, it can disrupt the binding of the co-activator peptide. The components of this homogeneous secondary assay included: the ^6His-tagged-ERR1LBD, a GST-labeled-hSRC2 co-activator polypeptide and a fluorescent donor/acceptor pair from CIS bio international htrf/bioassays (Bedford, Mass.) using both an α-GST Europium Cryptate (Eu) label and an α^6His-XL665 (allophycocyanin) fluorophore.
Reactions were allowed to reach equilibrium at 25° C. for 4-18 hours before collecting data on the Analyst from LJL Biosystems (Molecular Devices Sunnyvale, Calif.). […] Dose response curves were fitted using a hyperbolic equation and the data reported is the average of 3 independent experiments.
In general terms: TR-FRET usually uses a lanthanide donor and a delayed reading to cut background.
By EC50 is commonly meant the concentration that produces a half-maximal response. For the compound `COc1cc(/C=C2\SC(=O)NC2=O)ccc1Oc1ccc(C#N)c2ccccc12` [Compound 19, 4-[4-(2,4-Dioxothiazolidin-5-ylidenemethyl)-2-methoxyphenoxy]naphthalene-1-carbonitrile], the EC50 turned out to be 120 nM.

In the case of `COc1cc(/C=C2\SC(=O)NC2=O)ccc1Oc1ccc(C#N)cc1Cl` [Compound 21, 3-Chloro-4-[4-(2,4-dioxothiazolidin-5-ylidenemethyl)-2-methoxyphenoxy]benzonitrile], the EC50 stood at 430 nM.

For the compound `COC(=O)c1ccc(Oc2ccc(/C=C3\SC(=O)NC3=O)cc2OC)c2ccccc12` [Compound 24], it took 1 nM to reach a half-maximal effect (EC50).

Compound `COC(=O)c1cc(C(F)(F)F)ccc1Oc1ccc(/C=C2\SC(=O)NC2=O)cc1OC` [Compound 9, 2-[4-(2,4-Dioxo-thiazolidin-5-ylidenemethyl)-2-methoxy-phenoxy]-5-trifluoromethyl-benzoic acid methyl ester] came in with an EC50 of 480 nM.

`COc1cc(/C=C2\SC(=O)NC2=O)ccc1Oc1ccc(C#N)cc1Br` [Compound 22, 3-Bromo-4-[4-(2,4-dioxothiazolidin-5-ylidenemethyl)-2-methoxyphenoxy]benzonitrile] showed an EC50 of 480 nM.

Compound `COC(=O)c1ccc(Oc2ccc(/C=C3\SC(=O)NC3=O)cc2OC)c(C(F)(F)F)c1` [Compound 10, 4-[4-(2,4-Dioxo-thiazolidin-5-ylidenemethyl)-2-methoxy-phenoxy]-3-trifluoromethyl-benzoic acid methyl ester] displayed an EC50 of 12 nM.

For the compound `COc1cc(/C=C2\SC(=O)NC2=O)ccc1Oc1ccc(C(F)(F)F)cc1C#N` [Compound 8, 2-[4-(2,4-Dioxo-thiazolidin-5-ylidenemethyl)-2-methoxy-phenoxy]-5-trifluoromethyl-benzonitrile], the EC50 is 550 nM.

Turning to `COc1cc(/C=C2\SC(=O)NC2=O)ccc1Oc1ccc(C(F)(F)F)cc1Cl` [Compound 2, 5-[4-(2-Chloro-4-trifluoromethyl-phenoxy)-3-methoxy-benzylidene]-thiazolidine-2,4-dione], the EC50 was determined as 130 nM.

For the compound `COc1cc(/C=C2\SC(=O)NC2=O)ccc1Oc1ccc(C(F)(F)F)cc1Br` [Compound 20, 5-[4-(2-Bromo-4-trifluoromethylphenoxy)-3-methoxybenzylidene]thiazolidine-2,4-dione], the response was half-maximal at 380 nM (EC50).

The experiment is the same for the next values; noted with them: average of 3 independent experiments; read-out: TR-FRET EC50.
Take `N#Cc1ccc(Oc2ccc(/C=C3\SC(=O)NC3=O)cc2C(F)(F)F)c(C(F)(F)F)c1` [Compound 26, 4-[4-(2,4-Dioxo-thiazolidin-5-ylidenemethyl)-2-trifluoromethyl-phenoxy]-3-trifluoromethyl-benzonitrile]: the EC50 was determined as 1000 nM.

On to `N#Cc1ccc(Oc2ccc(/C=C3\SC(=O)NC3=O)cc2Cl)c(C(F)(F)F)c1` [Compound 18, 4-[2-Chloro-4-(2,4-dioxo-thiazolidin-5-ylidenemethyl)-phenoxy]-3-trifluoromethyl-benzonitrile], for which the 50% effective concentration (EC50) is 520 nM.

On to `N#Cc1ccc(Oc2ccc(/C=C3\SC(=O)NC3=O)cc2OC(F)(F)F)c(C(F)(F)F)c1` [Compound 29, 4-[4-(2,4-Dioxo-thiazolidin-5-ylidenemethyl)-2-trifluoromethoxy-phenoxy]-3-trifluoromethyl-benzonitrile], for which the EC50 amounted to 180 nM.

On to `CCOc1cc(/C=C2\SC(=O)NC2=O)ccc1Oc1ccc(C(N)=O)cc1C(F)(F)F` [Compound 27, 4-[4-(2,4-Dioxo-thiazolidin-5-ylidenemethyl)-2-ethoxy-phenoxy]-3-trifluoromethyl-benzamide], for which the EC50 stood at 330 nM.

Regarding `Cc1cc(/C=C2\SC(=O)NC2=O)ccc1Oc1ccc(C#N)c2ccccc12` [Compound 11, 4-[4-(2,4-Dioxo-thiazolidin-5-ylidenemethyl)-2-methyl-phenoxy]-naphthalene-1-carbonitrile], the EC50 was determined as 480 nM.

Take `COc1cc(/C=C2\OC(=O)NC2=O)ccc1Oc1ccc(C#N)c2ccccc12` [Compound 23, 4-[4-(2,4-Dioxo-oxazolidin-5-ylidenemethyl)-2-methoxy-phenoxy]-naphthalene-1-carbonitrile]: the 50% effective concentration (EC50) was found to be 480 nM.

`CCOc1cc(/C=C2\SC(=O)NC2=O)ccc1Oc1ccc(C#N)cc1C(F)(F)F` [Compound 13, 4-[4-(2,4-Dioxo-thiazolidin-5-ylidenemethyl)-2-ethoxy-phenoxy]-3-trifluoromethyl-benzonitrile]: the EC50 is 180 nM.

In the case of `COc1cc(/C=C2\SC(=O)NC2=O)ccc1Oc1ccc(S(C)(=O)=O)cc1Cl` [Compound 4, 5-[4-(2-Chloro-4-methanesulfonyl-phenoxy)-3-methoxy-benzylidene]-thiazolidine-2,4-dione], the EC50 stood at 550 nM.

Take `O=C1NC(=O)/C(=C/c2ccc(Oc3ccc(Cl)cc3C(F)(F)F)c(F)c2)S1` [Compound 31, 5-[4-(4-Chloro-2-trifluoromethyl-phenoxy)-3-fluoro-benzylidene]thiazolidine-2,4-dione]: the EC50 worked out at 33 nM.

With `COc1cc(/C=C2\SC(=O)NC2=O)ccc1Oc1ccc(S(C)(=O)=O)cc1Br` [Compound 3, 5-[4-(2-Bromo-4-methanesulfonyl-phenoxy)-3-methoxy-benzylidene]-thiazolidine-2,4-dione], the EC50 was found to be 1030 nM.

Regarding `N#Cc1ccc(Oc2ccc(/C=C3\SC(=O)NC3=O)cc2F)c2ccccc12` [Compound 17, 4-[4-(2,4-Dioxo-thiazolidin-5-ylidenemethyl)-2-fluoro-phenoxy]-naphthalene-1-carbonitrile], the EC50 was determined as 100 nM.

For the compound `COc1cc(/C=C2\SC(=O)NC2=O)ccc1Oc1ccc(Cl)cc1C(F)(F)F` [Compound 30, 5-[4-(4-Chloro-2-trifluoromethyl-phenoxy)-3-methoxy-benzylidene]-thiazolidine-2,4-dione], the EC50 is 8 nM.

On to `COc1cc(/C=C2\SC(=O)NC2=O)ccc1Oc1ccc(C(N)=O)cc1C(F)(F)F` [Compound 6, 4-[4-(2,4-Dioxo-thiazolidin-5-ylidenemethyl)-2-methoxy-phenoxy]-3-trifluoromethyl-benzamide], for which the EC50 was found to be 510 nM.

For `Cc1cc(/C=C2\SC(=O)NC2=O)ccc1Oc1ccc(C(N)=O)cc1C(F)(F)F` [Compound 28, 4-[4-(2,4-Dioxo-thiazolidin-5-ylidenemethyl)-2-methyl-phenoxy]-3-trifluoromethyl-benzamide], the EC50 came out at 440 nM.

For the compound `COc1cc(/C=C2\SC(=O)NC2=O)ccc1Oc1ccc(Br)cc1C(F)(F)F` [Compound 5, 5-[4-(4-Bromo-2-trifluoromethyl-phenoxy)-3-methoxy-benzylidene]-thiazolidine-2,4-dione], the EC50 amounted to 570 nM.

Consider `CCOc1cc(/C=C2\SC(=O)NC2=O)ccc1Oc1ccc(C#N)c2ccccc12` [Compound 15, 4-[4-(2,4-Dioxo-thiazolidin-5-ylidenemethyl)-2-ethoxy-phenoxy]-naphthalene-1-carbonitrile], for which the EC50 was determined as 37 nM.

As for `Cc1cc(/C=C2\SC(=O)NC2=O)ccc1Oc1ccc(C#N)cc1C(F)(F)F` [Compound 14, 4-[4-(2,4-Dioxo-thiazolidin-5-ylidenemethyl)-2-methyl-phenoxy]-3-trifluoromethyl-benzonitrile], the EC50 came to 200 nM.

In the case of `N#Cc1ccc(Oc2ccc(/C=C3\SC(=O)NC3=O)cc2F)c(C(F)(F)F)c1` [Compound 12, 4-[4-(2,4-Dioxo-thiazolidin-5-ylidenemethyl)-2-fluoro-phenoxy]-3-trifluoromethyl-benzonitrile], the EC50 came out at 150 nM.

On to `N#Cc1ccc(Oc2ccc(/C=C3\SC(=O)NC3=O)cc2Br)c(C(F)(F)F)c1` [Compound 16, 4-[2-Bromo-4-(2,4-dioxo-thiazolidin-5-ylidenemethyl)-phenoxy]-3-trifluoromethyl-benzonitrile], for which the EC50 is 600 nM.
